These are literature values, as cited in US6342251B1, “Compositions for nasal administration” (West Pharmaceutical Services Drug Delivery & Clinical …, priority 1997, dated 2002).

For data set [1] the following is noted: patients, erectile dysfunction.
For data set [2] the following is noted: Parkinson's disease.

On to `CN1CCc2cccc3c2[C@H]1Cc1ccc(O)c(O)c1-3` [apomorphine, (6aR)-5,6,6a, 7-tetrahydro-6-methyl-4H-dibenzo(d, e, g) quinoline-10, 11-diol hemihydrate], for which, in data set [1], the “side effects after nasal administration” value was “unacceptable side effects such as yawning, nausea, vomiting, dizziness, blurred vision, diaphoresis, pallor and mild hypertension”. The “local reactions after intranasal administration” value in data set [2] is “transient nasal blockage and a burning sensation”.
